BindingDB's records for doi:10.1016/S0960-894X(97)00406-X (1997)
Where a name gives a salt, the structure may show the parent alone.

test: Compound was evaluated for the inhibition of Opioid receptor delta 1 binding to guinea pig brain membranes, using 0.2 nM [3H]naltrindole as radioligand

Row | SMILES | Ki [nM]
1 | CC(=O)Nc1cccc([C@@H](CN2CCCC2)N(C)C(=O)Cc2ccc(Cl)c(Cl)c2)c1 [N-[(S)-1-(3-Acetylamino-phenyl)-2-pyrrolidin-1-yl-ethyl]-2-(3,4-dichloro-phenyl)-N-methyl-acetamide; hydrochloride] | 14
2 | CN(C(=O)Cc1ccc(Cl)c(Cl)c1)C(CN1CCCC1)c1cccc(NC(=S)Nc2ccc(-c3c4ccc(=O)cc-4oc4cc(O)ccc34)c(C(=O)O)c2)c1 (stereo not given) [5-{3-[3-(1-{[2-(3,4-Dichloro-phenyl)-acetyl]-methyl-amino}-2-pyrrolidin-1-yl-ethyl)-phenyl]-thioureido}-2-(6-hydroxy-3-oxo-3H-xanthen-9-yl)-benzoic acid] | 1.8
3 | CC(=O)Nc1cccc([C@H](CN2CCCC2)N(C)C(=O)Cc2ccc(Cl)c(Cl)c2)c1 [N-[(R)-1-(3-Acetylamino-phenyl)-2-pyrrolidin-1-yl-ethyl]-2-(3,4-dichloro-phenyl)-N-methyl-acetamide; hydrochloride] | 3070
4 | CN(C(=O)Cc1ccc(Cl)c(Cl)c1)[C@H](CN1CCCC1)c1cccc(NC(=S)Nc2ccc(-c3c4ccc(=O)cc-4oc4cc(O)ccc34)c(C(=O)O)c2)c1 [5-{3-[3-((S)-1-{[2-(3,4-Dichloro-phenyl)-acetyl]-methyl-amino}-2-pyrrolidin-1-yl-ethyl)-phenyl]-thioureido}-2-(6-hydroxy-3-oxo-3H-xanthen-9-yl)-benzoic acid] | 0.898
5 | CN(C(=O)Cc1ccc(Cl)c(Cl)c1)[C@@H](CN1CCCC1)c1cccc(NC(=S)Nc2ccc(-c3c4ccc(=O)cc-4oc4cc(O)ccc34)c(C(=O)O)c2)c1 [5-{3-[3-((R)-1-{[2-(3,4-Dichloro-phenyl)-acetyl]-methyl-amino}-2-pyrrolidin-1-yl-ethyl)-phenyl]-thioureido}-2-(6-hydroxy-3-oxo-3H-xanthen-9-yl)-benzoic acid] | 86
